Measured values reported in US10550079B2, “Artificial self-sufficient cytochrome P450s” (University of Florida Research Foundation, Incorporated, priority 2015, dated 2020).

Tests used:
TxtE = TxtE (Streptomyces scabiei, UniProt C9ZDC6); experiment: Nitration of fluorinated tryptophan substrates by TxtE; format: biochemical, S. scabies 87.22; parameters: inferred from the pET28 vector and Ni-NTA purification) (C); made in house; host or cells: E. coli BL21 (DE3)-GOLD
Procedure: (§1) P450 reactions contained 0.5 mM substrate, 1 mM NADP^+, 1 mM glucose, ˜10 units/mL self-prepared glucose dehydrogenase crude extract, 1 mM NOC-5 in 100 μL of Tris-HCl buffer (100 mM, pH 8.0). As the positive control, TxtE reaction was also re-constructed in the above mixture further supplemented with 0.43 μM spinach Fer and 0.33 μM Frd. The reactions were initiated by adding 1.5 μM P450s, and incubated at 20° C., 300 rpm on a thermostat (Eppendorf) for 2 hours. Methanol (200 μl) was then added to stop the reactions. After centrifugation, 10 μl solutions were analyzed by HPLC. […] The flow rate was set as 1.5 ml/min, and the products were detected at 211 nm with a PDA detector. […]
(§2) P450 reactions contained 0.5 mM substrate, 1 mM NADP^+, 1 mM glucose, ˜10 units/mL self-prepared glucose dehydrogenase crude extract, 1 mM NOC-5 [3-(aminopropyl)-1-hydroxy-3-isopropyl-2-oxo-1-triazene] in 100 μL of Tris-HCl buffer (100 mM, pH 8.0). […] After centrifugation, 10 μl solutions were analyzed by HPLC. […] The 4-NO2-l-tryptophan was synthesized in a large-scale enzymatic reaction to establish a standard curve for product quantification. […] NADPH consumption in enzyme reactions was measured at 340 nm (ε=6.22 mM^−1·cm^−1) with a Shimadzu UV2700 dual beam UV-Vis spectrophotometer. […] The quantity of nitrated product was determined by HPLC analysis as described above. […]

TxtE-BM3R = molecular target: T1, TxtE-BM3R (UniProt C9ZDC6+P14779); experiment: Nitration of fluorinated tryptophan substrates by TxtE-BM3R; format: biochemical, S. scabies 87.22 / B. megaterium ATCC 14581
T1 construct: P450BM3 (CYP102A1) reductase domain BM3R with its Domcut-predicted native linker, from B. megaterium ATCC 14581 (GenBank J04832.1); made in house; host or cells: E. coli BL21 (DE3)-GOLD
Procedure: as §1, §2

In the case of N[C@@H](Cc1c[nH]c2cccc(F)c12)C(=O)O [4-F-L-tryptophan], the “overall conversion rate relative to L-tryptophan” value (TxtE) is reported as “about 20%” and the “overall conversion rate relative to L-tryptophan” value (TxtE-BM3R) is reported as “about 20%”.
